{"source": "patent US8450527B2", "about": "“Amine derivative compounds for treating ophthalmic diseases and disorders” (Acucela Inc., priority 2007, dated 2013)"}
{"biological_target": "T1, isomerase (Mus musculus, UniProt Q91ZQ5)", "T1 construct": "The recovery of 11-cis-retinal after bleaching can be used to estimate the activity of isomerase in vivo; from tissue; host or cells: eye (RPE) of living CD-1 albino male mice", "T1 sequence (Q91ZQ5 1-533)": "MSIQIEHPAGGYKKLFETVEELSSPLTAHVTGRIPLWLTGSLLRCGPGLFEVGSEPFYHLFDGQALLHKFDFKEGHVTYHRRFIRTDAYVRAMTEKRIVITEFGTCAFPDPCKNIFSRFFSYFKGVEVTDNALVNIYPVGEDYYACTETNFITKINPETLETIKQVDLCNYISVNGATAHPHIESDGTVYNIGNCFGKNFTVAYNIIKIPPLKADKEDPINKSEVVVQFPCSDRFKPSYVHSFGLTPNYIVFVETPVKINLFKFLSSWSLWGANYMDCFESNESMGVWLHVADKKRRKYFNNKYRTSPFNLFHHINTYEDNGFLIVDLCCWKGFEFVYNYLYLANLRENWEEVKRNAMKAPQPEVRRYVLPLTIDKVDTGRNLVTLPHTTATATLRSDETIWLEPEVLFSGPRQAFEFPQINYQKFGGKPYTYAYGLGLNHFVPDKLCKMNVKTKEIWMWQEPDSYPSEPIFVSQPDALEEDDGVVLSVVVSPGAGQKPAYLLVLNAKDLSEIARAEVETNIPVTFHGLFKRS", "assay": "In vivo murine isomerase assay (recovery of 11-cis-retinal after photobleaching)", "design": "species or system CD-1 (albino) male mice", "conditions": "CD1 male mice, single oral dose 1 mg/kg, photobleaching 4 h post dosing", "experimental": "The capability of amine derivative compounds to inhibit isomerase was determined by an in vivo murine isomerase assay. Brief exposure of the eye to intense light (“photobleaching” of the visual pigment or simply “bleaching”) is known to photo-isomerize almost all 11-cis-retinal in the retina. The recovery of 11-cis-retinal after bleaching can be used to estimate the activity of isomerase in vivo.\nDelayed recovery, as represented by lower 11-cis-retinal oxime levels, indicates inhibition of isomerization reaction. Procedures were performed essentially as described by Golczak et al., Proc. Natl. Acad. Sci. USA 102:8162-67 (2005). See also Deigner et al., Science, 244: 968-71 (1989); Gollapalli et al., Biochim Biophys Acta. 1651: 93-101 (2003); Parish, et al., Proc. Natl. Acad. Sci. USA, 14609-13 (1998); Radu, et al., Proc Natl Acad Sci USA 101: 5928-33 (2004).\n[…] Mice were orally gavaged with the several of the amine derivative compounds described herein. After 1-48 hours in the dark, the mice were exposed to photobleaching of 5,000 lux of white light for 10 minutes. The mice were allowed to recover 2 hours in the dark. The animals were then sacrificed by carbon dioxide inhalation. Retinoids were extracted from the eye and the regeneration of 11-cis-retinal was assessed at various time intervals.\nAll steps were performed in darkness with minimal redlight illumination (low light darkroom lights and redfiltered flashlights for spot illumination as needed) (see, e.g., Maeda et al., J. Neurochem 85:944-956, 2003; Van Hooser et al., J Biol Chem 277:19173-82, 2002). After the mice were sacrificed, the eyes were immediately removed and placed in liquid nitrogen for storage.\nThe eyes were placed in 500 μL of bis-tris propane buffer (10 mM, pH ˜7.3) and 20 μL of 0.8M hydroxylamine (pH˜7.3). The eyes were cut up into small pieces with small iris scissors and then thoroughly homogenized at 30000 rpm with a mechanical homogenizer (Polytron PT 1300 D) in the tube until no visible tissue remained. 500 μL of methanol and 500 μL of heptane were added to each tube. The tubes were attached to a vortexer so that the contents were mixed thoroughly for 15 minutes in room temperature. The organic phase was separated from the aqueous phase by centrifugation for 10 min at 13K rpm, 4° C. 240 μL of the solution from the top layer (organic phase) was removed and transferred to clean 300 μl glass inserts in HPLC vials using glass pipette and the vials were crimped shut tightly.\nThe samples were analyzed on an Agilent 1100 HPLC system with normal phase column: SILICA (Beckman Coutlier, dp 5 μm, […]). The running method has a flow rate of 1.5 ml/min; solvent components are 15% solvent 1 (1% isopropanol in ethyl acetate), and 85% solvent 2 (100% hexanes). Loading volume for each sample is 100 μl; detection wavelength is 360 nm. The area under the curve for 11-cis retinal oxime was calculated by Agilent Chemstation software and was recorded manually. Data processing was performed using Prizm software.\nPositive control mice (no compound administered) were sacrificed fully dark-adapted and the eye retinoids analyzed. Light (bleached) control mice (no compound administered) were sacrificed and retinoids isolated and analyzed immediately after light treatment. The animals were orally gavaged with 1 mg/kg compound, then “photo-bleached” (5000 Lux white light for 10 minutes) at 4, 24 and 48 hours after dosing, and returned to darkness to allow recovery of the 11-cis-retinal content of the eyes. Mice were sacrificed 2 hours after bleaching, eyes were enucleated, and retinoid content was analyzed by HPLC.\nA dose response in vivo isomerase inhibition study was performed with several of the amine derivative compounds described herein. Six-week old dark-adapted CD-1 (albino) male mice were orally gavaged with 0.03, 0.1, 0.3, 1 and 3 mg/kg of compound in sterile water as solution, and photobleached 4 hours after dosing. […]", "units": {"% Inhibition 1 mg/kg 4 h": "%"}}
{"smiles": "NCCC(O)c1cccc(CCCCCCO)c1", "note": "(stereo not drawn) [Example 59, 6-(3-(3-amino-1-hydroxypropyl)phenyl)hexan-1-ol]", "% Inhibition 1 mg/kg 4 h": 14}
{"smiles": "CCCC(O)(CCC)CCc1cccc([C@@H](O)CCN)c1", "note": "[Example 70, (S)-4-(3-(3-amino-1-hydroxypropyl)phenethyl)heptan-4-ol]", "% Inhibition 1 mg/kg 4 h": 100}
{"smiles": "CCCC(O)(CCC)CCc1cccc([C@H](O)CCN)c1", "note": "[Example 71, (R)-4-(3-(3-Amino-1-hydroxypropyl)phenethyl)heptan-4-ol]", "% Inhibition 1 mg/kg 4 h": 67}
{"smiles": "NCCC(O)c1cccc(CCc2ccccc2)c1", "note": "(stereo not drawn) [Example 85, 3-amino-1-(3-phenethylphenyl)propan-1-ol]", "% Inhibition 1 mg/kg 4 h": 70}
{"smiles": "CC(C)CCCc1cccc(C(O)CCN)c1", "note": "(stereo not drawn) [Example 90, 3-amino-1-(3-(4-methylpentyl)phenyl)propan-1-ol]", "% Inhibition 1 mg/kg 4 h": 84}
{"smiles": "NCCOc1cccc(CCC2CCCCC2O)c1", "note": "(stereo not drawn) [Example 99, 2-(3-(2-aminoethoxy)phenethyl)cyclohexanol]", "% Inhibition 1 mg/kg 4 h": 22}
{"smiles": "NCCC(O)c1cccc(CCC2CCCCC2O)c1", "note": "(stereo not drawn) [Example 100, 2-(3-(3-amino-1-hydroxypropyl)phenethyl)cyclohexanol]", "% Inhibition 1 mg/kg 4 h": 9}
{"smiles": "CCCC(C)(O)CCc1cccc(C(O)CCN)c1", "note": "(stereo not drawn) [Example 109, 1-(3-(3-amino-1-hydroxypropyl)phenyl)-3-methylhexan-3-ol]", "% Inhibition 1 mg/kg 4 h": 79}
{"smiles": "NCCC(O)c1cccc(CCC2CCCCO2)c1", "note": "(stereo not drawn) [Example 110, 3-amino-1-(3-(2-(tetrahydro-2H-pyran-2-yl)ethyl)phenyl)propan-1-ol]", "% Inhibition 1 mg/kg 4 h": 61}
{"smiles": "CCC(O)(CC)CCc1cccc(C(O)CCN)c1", "note": "(stereo not drawn) [Example 113, 1-(3-(3-amino-1-hydroxypropyl)phenyl)-3-ethylpentan-3-ol]", "% Inhibition 1 mg/kg 4 h": 87}
{"smiles": "CCCC(O)(CCC)CCc1cccc(SCCN)c1", "note": "[Example 134, 4-(3-(2-aminoethylthio)phenethyl)heptan-4-ol]", "% Inhibition 1 mg/kg 4 h": 6}
{"smiles": "CCCC(O)(CCC)CCc1cc(C(O)CCN)ccc1F", "note": "(stereo not drawn) [Example 140, 4-(5-(3-amino-1-hydroxypropyl)-2-fluorophenethyl)heptan-4-ol]", "% Inhibition 1 mg/kg 4 h": 87}
{"smiles": "NCC#Cc1cccc(CS(=O)(=O)C2CCCCC2)c1", "note": "[Example 157, 3-(3-(cyclohexylsulfonylmethyl)phenyl)prop-2-yn-1-amine]", "% Inhibition 1 mg/kg 4 h": 0}
{"smiles": "NCCOc1cccc(C(=O)NC2CCCCC2)c1", "note": "[Example 164, 3-(2-aminoethoxy)-N-cyclohexylbenzamide]", "% Inhibition 1 mg/kg 4 h": 0}
{"smiles": "NCCCc1cccc(CCC2CCCCC2O)c1", "note": "(stereo not drawn) [Example 187, 2-(3-(3-aminopropyl)phenethyl)cyclohexanol]", "% Inhibition 1 mg/kg 4 h": 9}
